Assay results published in US6737383B1, “Herbicidal oxadiazolidines” (priority 1999, dated 2004).

Experiments:
duck salad = experiment: Test B flood test duck salad; type: in vivo, Heteranthera limosa
Summary of the method: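 Read-out is a visual response score from 0 (no effect) to 10 (complete control), assigned by comparison with untreated controls. Treatment was applied at the 2-leaf stage, and plants stayed in the greenhouse for twelve to sixteen days before scoring.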

soybean = experiment: Test B pre/postemergence soybean; type: in vivo, Glycine max
Summary of the method: (§1)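 Herbicidal effect was estimated by eye on a ten-point control scale after plants spent twelve to sixteen days in a greenhouse following soil or foliar treatment. Foliar sprays targeted plants at one to four leaves; all doses were formulated in a non-phytotoxic solvent with surfactant.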

winter wheat [1] = experiment: Test E winter wheat; type: in vivo, Triticum aestivum; conditions: Preemergence
tall mallow = experiment: Test D tall mallow; type: in vivo, Malva sylvestris; conditions: Preemergence, 0 to 100 scale
Summary of the method: (§2)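 Scoring used a 0–100 visual injury scale, with 0 meaning no effect and 100 complete control, assessed 14–21 days after application alongside untreated pots. Preemergence treatments went onto sandy loam surfaces of separately potted seeds within a day of sowing.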

wheat = experiment: Test B pre/postemergence wheat; type: in vivo, Triticum aestivum; conditions: for Plant response rating, Wheat: Rate 250 g/ha
Summary of the method: as §1

common ragweed = experiment: Test D common ragweed; type: in vivo, Ambrosia elatior; conditions: Preemergence, 0 to 100 scale
Summary of the method: as §2

winter barley = experiment: Test E winter barley; type: in vivo, Hordeum vulgare; conditions: Preemergence
Alexandergrass = experiment: Test D Alexandergrass; type: in vivo, Brachiaria plantaginea; conditions: Preemergence, 0 to 100 scale
Summary of the method: as §2

surinam grass = experiment: Test D surinam grass; type: in vivo, Brachiaria decumbens; conditions: Preemergence, 0 to 100 scale
Summary of the method: as §2

Italian ryegrass = experiment: Test E Italian ryegrass; type: in vivo, Lolium multiflorum; conditions: Preemergence
Green foxtail [2] = experiment: Test D green foxtail; type: in vivo
Summary of the method: as §2

wild oat = experiment: Test E wild oat; type: in vivo, Avena fatua; conditions: Preemergence
winter wheat [3] = experiment: Test E winter wheat; type: in vivo, Triticum aestivum; conditions: Postemergence
Summary of the method: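 Each compound, carried in a non-phytotoxic solvent blend including surfactant, was applied (postemergence: over the top of young plants at 1- to 4-leaf stage). Plants stayed in the greenhouse about 21 to 28 days before visual comparison with untreated controls.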

blackgrass = experiment: Test E blackgrass; type: in vivo, Alopecurus myosuroides; conditions: Preemergence
common pursiane = experiment: Test D common purslane; type: in vivo, Portulaca oleracea
Summary of the method: as §2

purple nutsedge = experiment: Test B pre/postemergence purple nutsedge; type: in vivo, Cyperus rotundus
Summary of the method: as §1

green foxtail [4] = experiment: Test E green foxtail; type: in vivo, Setaria viridis; conditions: Preemergence
[5] = Postemergence, Rate 125 g/ha, scale of 0 to 10 where 0 is no effect and 10 is complete control
[6] = Preemergence, Rate 62 g/ha, scale 0 to 10 (0 no effect, 10 complete control)
[7] = Preemergence, Rate 125 g/ha, scale 0 to 10 (0 no effect, 10 complete control)
[8] = Preemergence, Rate 250 g/ha, scale of 0 to 10 where 0 is no effect and 10 is complete control
[9] = Preemergence, Rate 500 g/ha, scale 0 to 10 (0 no effect, 10 complete control)
[10] = Rate 62 g/ha, Postemergence, scale of 0 to 10 where 0 is no effect and 10 is complete control
[11] = Rate 500 g/ha, Postemergence, scale 0 to 10, 0 no effect, 10 complete control
[12] = Rate 62 g/ha, 0 to 100 scale, 0 no effect, 100 complete control
[13] = Rate 125 g/ha, 0 to 100 scale (0 no effect, 100 complete control)
[14] = Rate 500 g/ha, 0 to 100 scale where 0 is no effect and 100 is complete control
[15] = Rate 16 g/ha, 0 no injury, 100 complete control
[16] = Rate 32 g/ha, 0 no injury, 100 complete control
[17] = Rate 64 g/ha, 0 no injury, 100 complete control
[18] = Rate 125 g/ha, 0 no injury, 100 complete control
[19] = Rate 16 g/ha; Preemergence; 0 to 100 scale, 0 no injury, 100 complete control
[20] = Rate 32 g/ha; Preemergence; 0 to 100 scale, 0 no injury, 100 complete control
[21] = Rate 64 g/ha, Preemergence; 0 to 100 scale, 0 no injury, 100 complete control
[22] = Rate 125 g/ha, Preemergence; 0 to 100 scale, 0 no injury, 100 complete control
[23] = Rate 250 g/ha; Preemergence; 0 to 100 scale
[24] = Rate 500 g/ha, Preemergence; 0 to 100 scale

CC(C)N(C(=O)n1oc(=O)n(C(C)C)c1=O)c1ccc(F)cc1F [Compound 109]
1: Ducksalad plant response rating (duck salad; Rate 1000 g/ha, Pre-emergence (as headed), scale 0 to 10)
30: Plant response rating, Wheat (winter) (winter wheat [1]; [13]) | Plant response rating Surinam grass (surinam grass; [16]) | Plant response rating, Wild oat (wild oat; [13]) | Plant response rating, Blackgrass (blackgrass; [12])
55: Plant response rating, Wheat (winter) (winter wheat [1]; Rate 250 g/ha, 0 to 100 scale) | Plant response rating, C. ragweed (common ragweed; Rate 500 g/ha) | Plant response rating, Wheat (winter) (winter wheat [3]; Rate 125 g/ha, 0 to 100 scale) | Plant response rating, C. purslane (common pursiane; [24])
80: Plant response rating, Wild oat (wild oat; [14])
75: Plant response rating, Wheat (winter) (winter wheat [3]; Rate 250 g/ha, 0 to 100 scale (0 no effect, 100 complete control))
70: Plant response rating, I. Ryegrass (Italian ryegrass; [14])
0: Ducksalad plant response rating (duck salad; Postemergence (flood test species), Rate 125 g/ha, scale of 0 to 10 where 0 is no effect and 10 is complete control) | Ducksalad plant response rating (duck salad; Rate 62 g/ha, Postemergence section, flood test species, scale of 0 to 10 where 0 is no effect and 10 is complete control) | Ducksalad plant response rating (duck salad; Rate 250 g/ha, headed Pre-emergence (flood test species), scale 0 to 10 (0 no effect, 10 complete control)) | Plant response rating, Ducksalad (duck salad; Rate 500 g/ha, headed Pre-emergence (flood test species), scale 0 to 10 (0 no effect, 10 complete control)) | Ducksalad plant response rating (duck salad; Rate 500 g/ha, listed under Postemergence (flood test species), scale 0 to 10, 0 no effect, 10 complete control) | Ducksalad plant response rating (duck salad; flood test, listed under Postemergence, Rate 250 g/ha, scale 0 to 10, 0 no effect, 10 complete control) | Soybean plant response rating (soybean; [6]) | Plant response rating, Tall Mallow (tall mallow; [15]) | Wheat plant response rating (wheat; [5]) | Wheat plant response rating (wheat; [6]) | Wheat plant response rating (wheat; [10]) | Plant response rating, C. ragweed (common ragweed; [15]) | Plant response rating, C. ragweed (common ragweed; [16]) | Plant response rating Surinam grass (surinam grass; [15]) | Plant response rating, Green foxtail (Green foxtail [2]; [20]) | Plant response rating, Wheat (winter) (winter wheat [3]; Rate 62 g/ha, 0 to 100 scale) | Plant response rating, Wheat (winter) (winter wheat [3]; Rate 500 g/ha, 0 to 100 scale, 0 no effect, 100 complete control) | Plant response rating, C. purslane (common pursiane; [19]) | Plant response rating, C. purslane (common pursiane; [20]) | Plant response rating, C. purslane (common pursiane; [21]) | Plant response rating, C. purslane (common pursiane; [22]) | Plant response rating, C. purslane (common pursiane; [23]) | Plant response rating, C. purslane (common pursiane; Rate 500 g/ha; Preemergence; 0 to 100 scale) | Nutsedge plant response rating (purple nutsedge; [5]) | Nutsedge plant response rating (purple nutsedge; Postemergence, Rate 250 g/ha, scale 0 to 10, 0 no effect, 10 complete control) | Nutsedge plant response rating (purple nutsedge; [6]) | Plant response rating, Nutsedge (purple nutsedge; [7]) | Plant response rating, Nutsedge (purple nutsedge; [8]) | Nutsedge plant response rating (purple nutsedge; [9]) | Nutsedge plant response rating (purple nutsedge; [10])
60: Tall Mallow plant response rating (tall mallow; [17])
10: Plant response rating, Wheat (winter) (winter wheat [1]; [14]) | Wheat plant response rating (wheat; [9]) | Plant response rating, C. ragweed (common ragweed; [17]) | Plant response rating, C. ragweed (common ragweed; [18]) | Plant response rating, C. ragweed (common ragweed; Rate 250 g/ha) | Plant response rating, Barley (winter) (winter barley; [12]) | Plant response rating, Barley (winter) (winter barley; [13])
5: Wheat plant response rating (0 to 10 scale) (wheat; Preemergence, Rate 125 g/ha, 0 is no effect, 10 is complete control) | Plant response rating, Wheat (wheat; Postemergence, scale 0 to 10, 0 is no effect, 10 is complete control) | Plant response rating, Barley (winter) (winter barley; [14])
65: Plant response rating, Blackgrass (blackgrass; [13]) | Plant response rating, Blackgrass (blackgrass; Rate 250 g/ha, 0 to 100 scale)
50: Plant response rating, Green foxtail (green foxtail [4]; [12])
7: Plant response rating, Soybean (soybean; [7]) | Plant response rating, Soybean (soybean; Rate 250 g/ha, Postemergence, scale 0 to 10, 0 is no effect, 10 is complete control) | Soybean plant response rating (soybean; [11])
90: Plant response rating, Alexandergrass (Alexandergrass; [16]) | Plant response rating, Blackgrass (blackgrass; [14])
85: Tall Mallow plant response rating (tall mallow; [18]) | Surinam grass plant response rating (surinam grass; [17]) | Plant response rating, Green foxtail (green foxtail [4]; [13]) | Plant response rating, Green foxtail (green foxtail [4]; [14])
4: Soybean plant response rating (soybean; [10]) | Nutsedge plant response rating (purple nutsedge; [11])
100: Plant response rating, Tall Mallow (tall mallow; Rate 500 g/ha) | Plant response rating, Alexandergrass (Alexandergrass; [18]) | Plant response rating, Alexandergrass (Alexandergrass; Rate 250 g/ha) | Plant response rating, Alexandergrass (Alexandergrass; Rate 500 g/ha) | Plant response rating Surinam grass (surinam grass; Rate 250 g/ha) | Plant response rating Surinam grass (surinam grass; Rate 500 g/ha) | Plant response rating, I. Ryegrass (Italian ryegrass; [13]) | Plant response rating, I. Ryegrass (Italian ryegrass; Rate 250 g/ha, 0 to 100 scale) | Plant response rating, Green foxtail (Green foxtail [2]; Preemergence; Rate 32 g/ha; 0 to 100 scale, 0 no injury, 100 complete control) | Green foxtail plant response rating (Green foxtail [2]; [21]) | Plant response rating, Green foxtail (Green foxtail [2]; [21]) | Green foxtail plant response rating (Green foxtail [2]; [22]) | Plant response rating, Green foxtail (Green foxtail [2]; [22]) | Plant response rating, Green foxtail (Green foxtail [2]; [23]) | Plant response rating, Green foxtail (Green foxtail [2]; [24]) | Plant response rating, Green foxtail (green foxtail [4]; Rate 250 g/ha, 0 to 100 scale)
9: Soybean plant response rating (soybean; [9]) | Plant response rating, Wheat (wheat; Preemergence, scale of 0 to 10 where 0 is no effect and 10 is complete control)
40: Plant response rating, Alexandergrass (Alexandergrass; [15])
98: Plant response rating, Tall Mallow (tall mallow; Rate 250 g/ha) | Plant response rating, Alexandergrass (Alexandergrass; [17]) | Surinam grass plant response rating (surinam grass; [18]) | Plant response rating, Green foxtail (Green foxtail [2]; Preemergence; Rate 16 g/ha; 0 to 100 scale, 0 no injury, 100 complete control) | Plant response rating, Green foxtail (Green foxtail [2]; [19])
6: Ducksalad plant response rating (duck salad; Rate 2000 g/ha, Pre-emergence (as headed), scale 0 to 10) | Soybean plant response rating (soybean; [5]) | Wheat plant response rating (wheat; [11])
20: Plant response rating, Wheat (winter) (winter wheat [1]; [12]) | Plant response rating, Tall Mallow (tall mallow; [16]) | Plant response rating, Barley (winter) (winter barley; Rate 250 g/ha, 0 to 100 scale) | Plant response rating, I. Ryegrass (Italian ryegrass; [12]) | Plant response rating, Wild oat (wild oat; [12])
8: Plant response rating, Soybean (soybean; [8])
